A word on the half-life: it is the time needed for the level to fall by half in the phase considered. High values mean slow loss, low ones fast loss.

This note sets out measurements from patent US20030022876A1, “Sustained-release analgesic compounds” (priority 2001, published 2003).

Series [1] can be described thus: Stability (half-life) in human plasma at 37° C., HPLC analysis. In kind it is in vitro ADME. The note with it: stock solution diluted 10 fold. As for the experimental part:
(§1) This stock solution was diluted 10 fold in either 0.1 M phosphate buffer, pH 7.4, or human plasma, and the working solution was placed in a water bath at 37° C. Samples had been taken every hour for the plasma and every couple of hours for the buffer.

A short description of series [2]: Stability (half-life) in 0.1 M phosphate buffer, pH 7.4, at 37° C., HPLC analysis. The format is physicochemical. The note with it: pH 7.4, 37° C. As to the method: as §1

Take `CN1CC[C@]23c4c5ccc(OC(=O)Cc6ccccc6Nc6c(Cl)cccc6Cl)c4O[C@H]2[C@@H](O)C=C[C@H]3[C@H]1C5` [Inventive compound (10)]: the half-life at 0.1 mg/ml is 0.35 ± 0.0167 h in series [1] and 2.5 ± 0.5 h in series [2].

As for `COc1ccc2cc(C(C)C(=O)OCOC(=O)Oc3ccc4c5c3O[C@H]3[C@@H](O)C=CC6[C@@H](C4)N(C)CC[C@@]563)ccc2c1` (stereo partly shown) [Inventive compound (16)], the half-life at 0.1 mg/ml in series [1] is 0.0583 ± 0.01 h; in series [2], 7.6 ± 0.5 h.
